# Positions count from the first letter of the chain named. Names and notes keep the numbering of the source. Ends that are not written are not given here.
# T1: apelin receptor (Homo sapiens, UniProt P35414)
# T1 sequence (P35414 1-380): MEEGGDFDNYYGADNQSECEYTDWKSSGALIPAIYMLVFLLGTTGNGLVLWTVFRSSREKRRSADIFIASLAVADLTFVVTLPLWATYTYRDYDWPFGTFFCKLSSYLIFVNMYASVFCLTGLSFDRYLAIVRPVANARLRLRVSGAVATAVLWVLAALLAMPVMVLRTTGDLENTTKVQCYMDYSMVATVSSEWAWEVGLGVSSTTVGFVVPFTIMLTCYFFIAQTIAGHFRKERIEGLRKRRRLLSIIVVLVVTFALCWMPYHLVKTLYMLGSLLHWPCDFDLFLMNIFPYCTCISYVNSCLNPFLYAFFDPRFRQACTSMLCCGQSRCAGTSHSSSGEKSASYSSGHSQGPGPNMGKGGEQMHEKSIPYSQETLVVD
# T2: apelin receptor (Rattus norvegicus, UniProt Q9JHG3)
# T2 construct: experiments using native rat and human receptor; from tissue; host or cells: pooled hearts of Sprague Dawley rats
# T2 sequence (Q9JHG3 1-377): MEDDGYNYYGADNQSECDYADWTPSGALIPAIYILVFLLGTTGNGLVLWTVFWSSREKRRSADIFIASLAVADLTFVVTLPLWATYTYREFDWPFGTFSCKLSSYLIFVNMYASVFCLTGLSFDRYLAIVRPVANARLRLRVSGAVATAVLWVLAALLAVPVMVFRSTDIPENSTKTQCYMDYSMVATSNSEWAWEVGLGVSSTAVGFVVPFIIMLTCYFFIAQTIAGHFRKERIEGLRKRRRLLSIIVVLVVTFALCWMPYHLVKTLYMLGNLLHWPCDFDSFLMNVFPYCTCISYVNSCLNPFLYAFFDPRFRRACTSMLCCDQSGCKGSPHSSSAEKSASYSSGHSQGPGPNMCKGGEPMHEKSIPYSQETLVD
# T3: apelin receptor (Rattus norvegicus), Q9JHG3
# T3 chain: T2 sequence (Q9JHG3 1-377) with L28A
# Assays:
# [1] = target: T1, apelin receptor; experiment: Bias analysis, cAMP vs β-arrestin (operational model for bias); format: cell-based; set-up: host or cells: CHO-K1; details: for cAMP vs β-arrestin Assay Bias factor: G protein (cAMP) over β-arrestin; for cAMP vs β-arrestin Assay Bias factor / cAMP vs β-arrestin Assay ΔΔlogR ± SEM: reference ligand apelin-36; for cAMP vs β-arrestin Assay ΔΔlogR ± SEM: difference between ΔlogR in cAMP and β-arrestin pathways
# Method: Data were expressed as mean ± SEM. Experiments were performed in triplicates or duplicates and n-values were expressed as number of independent experiments. Potencies of analogues in cell-based assays were compared to native apelin-36 using a one-way ANOVA with Dunnett’s posthoc test in GraphPad Prism 7. […] Binding affinities in both species were compared using Student’s t-test in Graphpad Prism as described above. […] Bias factors were calculated to compare the relative activities of the analogues between the different pathways – β-arrestin (G protein independent) and cAMP (G protein dependent).
# [2] = target: T1, apelin receptor; experiment: β-Arrestin recruitment assay (DiscoverX AGTRL1); format: cell-based; set-up: host or cells: CHO-K1; details: for β-Arrestin Assay Fold change: fold change in potency relative to apelin-36; for β-Arrestin Assay RE (relative effectiveness) / β-Arrestin Assay ΔlogR: operational model, compared to apelin-36; for β-Arrestin Assay ΔlogR / EC50 / β-Arrestin Assay pD2±SEM: n = 3-4 independent experiments; for EC50 / β-Arrestin Assay pD2±SEM: CHO-K1 cells expressing human apelin receptor, 90 min, 37 °C, mean ± SEM, SEM; for EC50: read-out: β-Arrestin Assay pD2±SEM (converted)
# Method: Experiments were performed using a β-arrestin GPCR Assay (AGTRL1) (DiscoverX, Lot No.: 16L0902) according to methods previously described. CHO-K1 cells artificially expressing the human apelin receptor were seeded in Cell Plating media into 96-well plates and incubated for 48 h at 37 °C in 5% CO2. […] Negative controls were defined with equal volumes of drug solvent (water). The resulting chemiluminescent signal was measured using a LumiLITE™ Microplate Reader (DiscoverX, Fremont, CA). Responses, measured in relative light units, were fitted with a 4-parameter logistic equation in GraphPad Prism 7 (La Jolla, CA, USA) and values of pD2 and maximum response (EMax) were calculated for each compound.
# (§1) Data were expressed as mean ± SEM. Experiments were performed in triplicates or duplicates and n-values were expressed as number of independent experiments. Potencies of analogues in cell-based assays were compared to native apelin-36 using a one-way ANOVA with Dunnett’s posthoc test in GraphPad Prism 7. A P value < 0.05 was considered statistically significant. Binding affinities in both species were compared using Student’s t-test in Graphpad Prism as described above. Bias calculations were performed as previously described using the operational model for bias, to obtain values for relative effectiveness of the apelin-36 synthetic analogues compared to apelin-36 within each cell-based assay. Bias factors were calculated to compare the relative activities of the analogues between the different pathways – β-arrestin (G protein independent) and cAMP (G protein dependent).
# [3] = target: T1, apelin receptor; experiment: Inhibition of forskolin-induced cAMP accumulation assay (DiscoverX); format: cell-based; set-up: host or cells: CHO-K1; details: for cAMP Assay Fold change: fold change in potency relative to apelin-36; for cAMP Assay RE (relative effectiveness) / cAMP Assay ΔlogR: operational model, compared to apelin-36
# Method: Cell-based cAMP assay were performed as previously described. Briefly, Chinese Hamster Ovary cells (CHO-K1) cells artificially expressing the human apelin receptor were seeded in Cell Plating media into 96-well plates and incubated for 24 h at 37 °C in 5% CO2. […] Cells were subsequently incubated with cAMP Detection Reagent comprising cAMP Lysis Buffer, Substrate Reagent 1, Substrate Reagent 2 and cAMP Solution D for 1 h at room temperature followed by 3 h incubation with cAMP Reagent A at room temperature and chemiluminescence reading (LumiLITE™ Microplate Reader, DiscoverX). Responses were fitted to a 4-parameter logistic equation in GraphPad Prism 7 (La Jolla, CA, USA) and values of potency, pD2 (-log10 EC50, where EC50 is the concentration producing half maximal response) determined. Data were expressed as percentage inhibition of forskolin-stimulated cAMP production.
# as §1
# [4] = tested on: apelin receptor; set-up: method as in earlier work; details: ref 20 (Galon-Tilleman et al.), cited from earlier work
# [5] = target: T1, apelin receptor; experiment: Radioligand competition binding, human left ventricle homogenate; set-up: experiments using native rat and human receptor; from tissue; host or cells: human left ventricle from explanted hearts of dilated cardiomyopathy patients; details: [125I]apelin-13 0.1 nM, 90 min, competitor 50 pM-100 μM, mean ± SEM, n = 3 replicates per concentration; for Ki: human heart homogenate 1.5 mg/ml
# Excerpt: Samples of human left ventricle were obtained with informed consent and ethical approval (05/Q104/142) via the Papworth Hospital Research Tissue Bank (08/H0304/56) from the explanted hearts of five dilated cardiomyopathy patients (4 males and 1 female, aged 38–55 years) undergoing transplantation. Studies conformed to the principles outlined in the declaration of Helsinki. All animal research was regulated under the Animals (Scientific Procedures) Act 1986 Amendment Regulations 2012 following ethical review by the University of Cambridge Animal Welfare and Ethical Review Body (AWERB). Adult female and male Sprague Dawley rats (n = 14; aged 7–10 weeks) were sacrificed using overdose of CO2 and cervical dislocation before heart tissue was removed and frozen on dry ice. Hearts were pooled and 2 g tissue transferred into a centrifuge tube (50 ml) containing 20 ml homogenisation buffer (50 mM Tris, 5 mM MgCl2, 5 mM EDTA, 1 mM EGTA at pH 7.4 with protease inhibitor cocktail) on ice. The tissue was homogenised on ice using a polytron probe with 2–3 × 20 s bursts and centrifuged at 3000 rpm for 2 min at 4 °C. The supernatant was further centrifuged at 18,500 rpm for 30 min at 4 °C. The resulting pellet was resuspended in 5 ml homogenisation buffer containing protease inhibitor cocktail and centrifuged at 18,500 rpm for 30 min at 4 °C twice. Final pellets were then resuspended in 10 ml HEPES buffer (50 mM HEPES, pH 7.4) and protein concentration determined. Samples were stored at −70 °C until required.
# Competition binding experiments were performed using pooled human homogenised left ventricle (HLV, 1.5 mg/ml) and pooled rat heart homogenates (1.5 mg/ml) as previously described. […] (50 pM-100 μM). […] The samples were then re-centrifuged to collect protein pellets before bound radioactivity in these pellets were counted using Packard Cobra II Auto Gamma Counter (Packard). Data were analysed with Graphpad Prism 7 (Graphpad Software, Inc. La Jolla, CA), using the One-site Fit Ki equation.
# [6] = target: T2, apelin receptor; experiment: Radioligand competition binding, rat heart homogenate; details: [125I]apelin-13 0.1 nM, 90 min, competitor 50 pM-100 μM, mean ± SEM, n = 3 replicates per concentration
# Excerpt: Samples of human left ventricle were obtained with informed consent and ethical approval (05/Q104/142) via the Papworth Hospital Research Tissue Bank (08/H0304/56) from the explanted hearts of five dilated cardiomyopathy patients (4 males and 1 female, aged 38–55 years) undergoing transplantation. Studies conformed to the principles outlined in the declaration of Helsinki. All animal research was regulated under the Animals (Scientific Procedures) Act 1986 Amendment Regulations 2012 following ethical review by the University of Cambridge Animal Welfare and Ethical Review Body (AWERB). Adult female and male Sprague Dawley rats (n = 14; aged 7–10 weeks) were sacrificed using overdose of CO2 and cervical dislocation before heart tissue was removed and frozen on dry ice. […] Final pellets were then resuspended in 10 ml HEPES buffer (50 mM HEPES, pH 7.4) and protein concentration determined. […]
# Competition binding experiments were performed using pooled human homogenised left ventricle (HLV, 1.5 mg/ml) and pooled rat heart homogenates (1.5 mg/ml) as previously described. […] The samples were then re-centrifuged to collect protein pellets before bound radioactivity in these pellets were counted using Packard Cobra II Auto Gamma Counter (Packard). Data were analysed with Graphpad Prism 7 (Graphpad Software, Inc. La Jolla, CA), using the One-site Fit Ki equation.
# [7] = target: T3, apelin receptor (Rattus norvegicus), …; experiment: radioligand competition binding, heart homogenate; details: modification not given
# [8] = n = 3-4 independent experiments
# [9] = CHO-K1 cells expressing human apelin receptor, 15 μM forskolin, 30 min, 37 °C, mean ± SEM, n = 3-4 independent experiments, SEM, read-out: cAMP Assay pD2±SEM (converted)
# [10] = CHO-K1 cells expressing human apelin receptor, 15 μM forskolin, 30 min, 37 °C, n = 3-4 independent experiments, read-out: cAMP Assay EC50
molecule,measurement,setting,value
[40kDa-PEG]-Apelin-36: N-terminal PEGylated (40kDa) apelin-36,cAMP vs β-arrestin Assay Bias factor,[1],5
same,cAMP vs β-arrestin Assay ΔΔlogR ± SEM,[1],0.67 ± 0.43
same,β-Arrestin Assay Fold change,[2],3 fold
same,β-Arrestin Assay RE (relative effectiveness),[2],0.26
same,β-Arrestin Assay ΔlogR,[2],−0.59 ± 0.16
same,cAMP Assay Fold change,[3],2 fold
same,cAMP Assay RE (relative effectiveness),[3],1.20
same,cAMP Assay ΔlogR,[3]; [8],0.08 ± 0.40
Apelin-13 [reference compound],agonist character at apelin receptor (comment),[4]; comment in Table 1,QRPRLSHKGPMPF (full agonist)
LVQPRGSRNGPGPWQGGRRKFRRQRPRLSHKGPMPF [Apelin-36],Ki,[5],0.0525 nM
same,EC50,[2],0.676 nM
same,EC50,[3]; [9],0.912 nM
same,Ki,[6],0.0589 nM
"Apelin-36-[L28C(30kDa-PEG)]: apelin-36 with leucine-28 to cysteine substitution, cysteine-28 PEGylated (30kDa)",fold more potent in the cAMP assay compared to the β-arrestin assay,[1]; CHO-K1 cells expressing human apelin receptor,~10 fold
same,cAMP vs β-arrestin Assay Bias factor,[1],58
same,cAMP vs β-arrestin Assay ΔΔlogR ± SEM,[1],1.76 ± 0.33
same,β-Arrestin Assay Fold change,[2]; listed as Apelin-36-[L28C (30kDa-PEG)],1324 fold
same,β-Arrestin Assay Fold change,[2]; listed as apelin-36-[L28C(30kDa-PEG)],1400 fold
same,β-Arrestin Assay RE (relative effectiveness),[2],0.0002
same,β-Arrestin Assay ΔlogR,[2],−3.71 ± 0.12
same,cAMP Assay Fold change,[3],104 fold
same,cAMP Assay RE (relative effectiveness),[3],0.01
same,cAMP Assay ΔlogR,[3]; [8],−1.95 ± 0.31
same,fold less potent / less active at apelin receptor compared to apelin-36,[4]; β-arrestin activation,"10,000 fold"
[40kDa-PEG]-Apelin-36: N-terminal PEGylated (40kDa) apelin-36 (LVQPRGSRNGPGPWQGGRRKFRRQRPRLSHKGPMPF),β-Arrestin Assay pD2±SEM,[2],8.71 ± 0.15
same,cAMP Assay pD2±SEM,"[3]; CHO-K1 cells expressing human apelin receptor, 15 μM forskolin, 30 min, 37 °C, mean ± SEM, n = 3-4 independent experiments, SEM",8.69 ± 0.22
LVQPRGSRNGPGPWQGGRRKFRRQRPRLSHKGPMPA [Apelin-36-[F36A]],EC50,[2],8.13 nM
same,EC50,[3]; [9],1.26 nM
"Apelin-36-[L28C(30kDa-PEG)]: apelin-36 with leucine-28 to cysteine substitution, cysteine-28 PEGylated (30kDa) (LVQPRGSRNGPGPWQGGRRKFRRQRPRCSHKGPMPF)",pKi,[5]; human heart homogenate […],8.00 ± 0.05
same,β-Arrestin Assay pD2±SEM,[2],6.05 ± 0.06
same,EC50,[3]; [10],95.3 nM
same,pKi,[6],8.06 ± 0.37
LVQPRGSRNGPGAWQGGRRKFRRQRPRASHKGPMPF [Apelin-36-[A13 A28]],EC50,[2],151 nM
same,EC50,[3]; [9],7.59 nM
LVQPRGSRNGPGPWQGGRRKFRRQRPRASHKGPMPF [Apelin-36-[L28A]],Ki,[5],3.02 nM
same,EC50,[2],37.2 nM
same,EC50,[3]; [10],13.1 nM
LVQPRGSRNGPGPWQGGRRKFRRQRPRASHKGPMPF (not fully specified) [apelin-36-[L28A]],Ki,[7],0.309 nM

# Source: paper PMC6838674, “Apelin-36-[L28A] and Apelin-36-[L28C(30kDa-PEG)] peptides that improve diet induced obesity are G protein biased ligands at the apelin receptor” (Peptides, 2019)
